Measured values reported in US11135229B2, “Cat and dog sterilization by estrogenic compounds” (Insigna Inc., priority 2018, dated 2021).

Key:
[1] = rat, in vivo, sc
Description: Hormonal measurement. Blood was collected from the tail vein or by cardiac puncture. The blood was centrifuged at 2000×g for 10 minutes; then serum was collected and preserved at −20° C. until further analyses. Serum estradiol concentrations were measured by using ELISA kits (DRG EIA4399) with a reportable range of 1.4-200 μg/ml.
A silicone capsule containing 17β-estradiol 3-benzoate (EB, Sigma E8515) was used as a device to elevate blood 17β-estradiol (E2) concentration to a supra-physiological level. Once implanted subcutaneously, the silicone capsule with EB (called eSpay) releases EB for an extended period of time. […] Therefore, EB that contained 300 μg of EB (herein EB300) was made by dissolving 300 μg of EB in 5 μl of sesame oil (Sigma S3547), and it was inserted into a silicone tube (Dow Corning 508-005) that was later closed with silicone sealant (Factor II, Inc. Medical Adhesive A-100). The capsule was kept at room temperature until use. The EB300 capsule was approximately 8 mm long and 2.16 mm in diameter. […]
The efficacy of the EB300 capsule as a device to elevate E2 levels in its recipient was tested after implanting it on the day of birth (post-natal day 0, PND 0). Serum and hypothalami were collected at PND 1, 2, 3, 4, 7, 10, 21, and 30, and E2 concentrations were measured.

[2] = tested on: premature male and female rats; type: in vivo
[3] = premature male rats, capsule injected subcutaneously

For `C[C@]12CC[C@@H]3c4ccc(OC(=O)c5ccccc5)cc4CC[C@H]3[C@@H]1CC[C@@H]2O` [EB, 17β-Estradiol 3-benzoate], which “Period of sustained, high blood E2 level” value [1] is on record?
Its value is “about three weeks”.

What about the Female reproductive system ([2]; premature female rats, capsule injected) of the same compound?
Its Female reproductive system is “preventing the females from undergoing menstrual cycling and from producing ova”.

What about the “Sterility of male rats” value [2, 3] of the same compound?
The value was “permanently sterile”.

What about the “Testicular testosterone and sperm production” value [2, 3] of the same compound?
Its value is “did not produce testosterone or sperm”.

And the Death or sickness ([2]; rat, in vivo)?
The Death or sickness was “no subject animal died or exhibited sickness”.

What about the “Immune system, liver and kidney function examination” value ([2]; rat, in vivo) of the same compound?
The value was “no clinical pathology”.
